Results taken from patent US20220372560A1, “METHODS FOR DETECTING OLIGONUCLEOTIDES” (Takeda Pharmaceutical Company Limited, priority 2019, published 2022).

Test: Persistence of PMO and P-PMO in serum and tissues two weeks post-last dose (FIGS. 5a, 5b)
Type: in vivo
Conditions: mice
Method: PMO or P-PMO serial dilutions for standard curves and quality controls in 5.0% mouse serum, and 5.0 mg/ml or 1.0 mg/ml tissue homogenates were made using 1×TE buffer supplemented with 0.1% v/v Triton X-100 with a starting concentration of 51.2 nM PMO/P-PMO. Serum samples were diluted 20-fold, and tissues were homogenized and diluted to 5.0 mg/ml or 1.0 mg/ml tissue homogenates with the same buffer. 200 μL of calibrator solution, quality control, and/or sample were treated with 20 μL of 40 mg/ml trypsin (purchased as lyophilized powder from Sigma-Aldrich) at 37° C. overnight in a deep 1.0-mL 96-well plate on thermomixer C (600 rpm) to cleave the peptide component and release the PMO. 40 μL of 2.5 nM oligonucleotide probe in hybridization buffer (with 0.1% serum) was added to each well. The plate was then sealed, incubated at 65° C. for 15 minutes (600 rpm), and allowed to cool at room temperature for 15 minutes. […] The intensity of fluorescence at 444 nm excitation and 555 nm emission was measured by a […] SpectraMax MT5 microplate reader.
In order to test the persistence of oligonucleotides, serum and various tissues were also analyzed two weeks post-last dose. Serum levels for both PMO and P-PMO treated mice were measured in the 1 nM range. At this time point the overall oligonucleotide levels in the tissues analyzed were also similar (FIG. 5a). […]

Question: Which results are given for “PMO: 25-mer PMO antisense sequence for mouse dystrophin exon-23, 5′-GGCCAAACCTCGGCTTACCTGAAAT-3′ (SEQ ID NO: 1), not conjugated to a peptide (all phosphorodiamidate morpholino (PMO))”?
Answer: serum levels: ~1 nM; overall oligonucleotide levels in the tissues analyzed, PMO compared with P-PMO (absolute concentrations (FIG. 5a)): similar
